The target in test [1] is T1, CPT II variant S113L (Homo sapiens, UniProt P23786, S113L).
T1 construct: made in house; host or cells: Escherichia coli BL21Gold DE
T1 sequence (P23786 26-658 S113L): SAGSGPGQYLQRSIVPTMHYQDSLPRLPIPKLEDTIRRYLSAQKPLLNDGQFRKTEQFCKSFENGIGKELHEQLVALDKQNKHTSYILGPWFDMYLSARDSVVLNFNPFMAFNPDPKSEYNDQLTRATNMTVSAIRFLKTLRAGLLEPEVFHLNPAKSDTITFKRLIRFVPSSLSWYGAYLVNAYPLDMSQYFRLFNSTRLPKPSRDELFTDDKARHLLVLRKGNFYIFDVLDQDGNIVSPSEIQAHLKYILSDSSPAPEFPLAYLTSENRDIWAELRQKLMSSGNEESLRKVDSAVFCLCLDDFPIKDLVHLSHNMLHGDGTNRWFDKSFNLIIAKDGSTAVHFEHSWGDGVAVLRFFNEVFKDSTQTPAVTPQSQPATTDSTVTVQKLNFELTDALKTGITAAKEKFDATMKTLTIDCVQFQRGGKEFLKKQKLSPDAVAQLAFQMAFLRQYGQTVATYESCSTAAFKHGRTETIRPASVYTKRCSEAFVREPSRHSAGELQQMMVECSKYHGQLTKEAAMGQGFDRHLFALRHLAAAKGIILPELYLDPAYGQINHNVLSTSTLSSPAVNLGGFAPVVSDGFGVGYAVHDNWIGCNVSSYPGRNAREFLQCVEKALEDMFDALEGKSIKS
In words: nanoDSF protein stability in presence of CL or β-OG. Type of test: binding. How it is done: (§1) NanoDSF is a standard method for the investigation of the folding/unfolding of proteins and the interaction of proteins with effectors/ligands/substrates
(§2) The protein stability was investigated applying nano differential scanning fluorimetry (nanoDSF) using a protein concentration of 1 mg/mL in assay buffer. […] The heating rate has been set to 1 °C per min. A heating ramp from 15 to 95 °C was determined. The nanoDSF data were obtained using a Prometheus NT.48 device. First derivatives were calculated using PR.ThermControl software (NanoTemper Technologies GmbH, Munich, Germany). Experiments were performed at least three times independently as double determination.
A general note: DSF heats the sample and reads unfolding from a dye or from intrinsic fluorescence.

For another test, the target named is T2, CPT II variant Y479F (Homo sapiens, UniProt P23786, Y479F).
T2 construct: made in house; host or cells: Escherichia coli BL21Gold DE
T2 sequence (P23786 26-658 Y479F): T1 sequence (P23786 26-658 S113L) with L88S, Y454F
The test is described as above. Format: binding. The method, then:
as §1, §2

Another test concerns the target T3, CPT II WT (Homo sapiens, UniProt P23786).
T3 construct: made in house; host or cells: Escherichia coli BL21Gold DE
T3 sequence (P23786 26-658): T1 sequence (P23786 26-658 S113L) with L88S
The description is as above. Format: binding. How it is done:
as §1, §2

Test [2] deals with T1, CPT II variant S113L. Further details: method as in PMID 13534673. The conditions noted are these: cited from earlier work.
Where [3] appears, read: reference TM of WT in buffer (ΔTM = 0 °C).

Residue numbers refer to the chain shown, from its start.

Take Cardiolipin [CL]: the “Increase of ΔTM-value due to the addition of CL” value on CPT II variant S113L [1] (0.25 mM CL), on CPT II variant Y479F (0.25 mM CL) and at CPT II WT (0.25 mM CL) was “+10 °C” each time. The figures for the “∆TM in Buffer with 0.25 mM CL” value on CPT II variant S113L [1] (setting [3]), on CPT II variant Y479F (setting [3]) and on CPT II WT (setting [3]) were 6.5 ± 0.2 °C, 9.0 ± 0.1 °C and 10.6 °C, respectively. In addition, the entries for the “TM in Buffer with 0.25 mM CL” value at CPT II variant Y479F (1 mg/mL protein) and at CPT II WT (1 mg/mL protein) were 45.9 ± 1.0 °C and 47.6 °C, respectively. The “Effect of CL on enzyme activity” value at CPT II variant S113L [2] was “no benefit”.

Source of the values: publication PMC8125234, “Cardiolipin Stabilizes and Increases Catalytic Efficiency of Carnitine Palmitoyltransferase II and Its Variants S113L, P50H, and Y479F” (International Journal of Molecular Sciences, 2021).
